Assay type in all cases: cell-based
Experiment [1] concerns the target T1, GIPR (Homo sapiens, UniProt P48546).
T1 construct: expressed in transfected cells; host or cells: CHO-K1
T1 sequence (P48546 22-466): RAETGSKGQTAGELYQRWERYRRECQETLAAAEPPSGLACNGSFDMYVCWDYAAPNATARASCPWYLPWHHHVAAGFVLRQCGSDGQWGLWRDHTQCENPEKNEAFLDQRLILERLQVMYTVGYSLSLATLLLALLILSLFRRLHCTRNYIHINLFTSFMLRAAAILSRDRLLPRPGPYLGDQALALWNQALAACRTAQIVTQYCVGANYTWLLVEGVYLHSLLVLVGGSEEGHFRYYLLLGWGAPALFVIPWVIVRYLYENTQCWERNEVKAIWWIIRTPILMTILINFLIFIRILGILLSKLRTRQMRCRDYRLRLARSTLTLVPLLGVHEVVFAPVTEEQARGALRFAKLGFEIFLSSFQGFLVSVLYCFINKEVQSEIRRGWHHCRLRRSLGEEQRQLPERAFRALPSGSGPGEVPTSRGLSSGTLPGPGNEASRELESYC
In words: GIP activity test (cAMP, chemiluminescence). The procedure:
(§1) Upon stimulation by a specific agonist, GIPR activates the intracellular adenylate cyclase signaling pathway, resulting in an increase in cAMP levels and ultimately leading to insulin production and secretion. A cell line stably transfected with GIPR was stimulated with test compounds, thereby rapidly increasing intracellular cAMP levels. The relative luminescence units (RLU) of cells stimulated at various concentrations were measured by a chemiluminescence method, and the EC50 value of the agonist was calculated accordingly. This activity assay method is currently a commonly used method for evaluating GIP receptor agonist activity both domestically and internationally. A CHO-K1 cell line stably expressing GIPR was used. The stable cells were stimulated with agonists at different concentrations, and the relative luminescence units after stimulation at each concentration were measured to calculate the EC50 value of the agonist.

Experiment [2] addresses T2, GCG-R (Homo sapiens, UniProt P47871).
T2 construct: expressed in transfected cells; host or cells: CHO-K1
In words: GCG activity test (cAMP, chemiluminescence). How it is done: as §1, with “GCG-R” for “GIPR”, “GCG” for “GIP”, “internationally.” for “internationally. A CHO-K1 cell line stably expressing GIPR was used. The stable cells were stimulated with agonists at different concentrations, and the relative luminescence units after stimulation at each concentration were measured to calculate the EC50 value of the agonist.”
A CHO-K1 cell line stably expressing GCG-R was used. The stable cells were stimulated with agonists at different concentrations, and the relative luminescence units after stimulation at each concentration were measured to calculate the EC50 value of the agonist.

Experiment [3] concerns the target T3, GLP-1R (Homo sapiens, UniProt P43220).
T3 construct: expressed in transfected cells; host or cells: CHO-K1
The experiment can be described thus: GLP-1 activity test (cAMP, chemiluminescence). The procedure: as §1, with “GLP-1R” for “GIPR”, “test” for “assay”, “GLP-1” for “GIP”

Structures are written as SMILES.

T2 sequence (P47871 26-477, species assumed): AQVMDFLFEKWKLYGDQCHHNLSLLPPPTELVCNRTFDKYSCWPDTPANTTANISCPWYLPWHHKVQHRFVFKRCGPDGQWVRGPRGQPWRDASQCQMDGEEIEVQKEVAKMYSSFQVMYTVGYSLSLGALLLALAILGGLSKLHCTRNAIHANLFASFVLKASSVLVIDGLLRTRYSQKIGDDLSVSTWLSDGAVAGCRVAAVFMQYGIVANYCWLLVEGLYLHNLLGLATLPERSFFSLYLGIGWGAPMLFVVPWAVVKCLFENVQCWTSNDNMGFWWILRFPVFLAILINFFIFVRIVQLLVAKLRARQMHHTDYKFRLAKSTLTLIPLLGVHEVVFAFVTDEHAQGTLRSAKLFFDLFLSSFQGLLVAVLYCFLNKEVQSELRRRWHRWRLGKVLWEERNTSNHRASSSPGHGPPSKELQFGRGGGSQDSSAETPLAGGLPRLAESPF
T3 sequence (P43220 24-463, species assumed): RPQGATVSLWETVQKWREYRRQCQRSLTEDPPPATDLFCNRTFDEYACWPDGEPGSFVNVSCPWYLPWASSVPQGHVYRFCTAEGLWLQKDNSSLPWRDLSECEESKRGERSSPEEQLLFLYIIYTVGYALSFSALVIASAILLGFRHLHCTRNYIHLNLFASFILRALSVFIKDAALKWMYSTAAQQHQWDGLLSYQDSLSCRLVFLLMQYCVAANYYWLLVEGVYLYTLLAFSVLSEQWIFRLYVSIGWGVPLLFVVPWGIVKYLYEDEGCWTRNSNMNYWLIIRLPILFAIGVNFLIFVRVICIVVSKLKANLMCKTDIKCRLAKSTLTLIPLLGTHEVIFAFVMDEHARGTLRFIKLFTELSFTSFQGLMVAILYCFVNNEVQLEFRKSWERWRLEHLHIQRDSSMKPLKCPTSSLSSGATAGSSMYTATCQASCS

`CC[C@H](C)[C@H](NC(=O)[C@H](Cc1ccccc1)NC(=O)[C@H](C)NC(=O)C(C)(C)NC(=O)[C@H](CCC(N)=O)NC(=O)[C@H](C)NC(=O)[C@H](CCCCNC(=O)COCCOCCNC(=O)CCCCC[C@H](NC(=O)CCCCCCCCCCCCCCCCCCC(=O)O)C(=O)O)NC(=O)[C@H](CCCCN)NC(=O)[C@H](CC(=O)O)NC(=O)[C@H](CC(C)C)NC(=O)C(C)(CC(C)C)NC(=O)[C@@H](NC(=O)[C@H](CO)NC(=O)[C@H](Cc1ccc(O)cc1)NC(=O)[C@H](CC(=O)O)NC(=O)[C@H](CO)NC(=O)[C@@H](NC(=O)C(C)(Cc1ccccc1F)NC(=O)[C@@H](NC(=O)CNC(=O)[C@H](CCC(N)=O)NC(=O)C(C)(C)NC(=O)[C@@H](N)Cc1ccc(O)cc1)[C@@H](C)O)[C@@H](C)O)[C@@H](C)CC)C(=O)N[C@@H](CCC(=O)O)C(=O)N[C@@H](Cc1ccc(O)cc1)C(=O)N[C@@H](CC(C)C)C(=O)N[C@@H](CC(C)C)C(=O)N[C@@H](CCC(=O)O)C(=O)NCCCCC(=O)N1CCC[C@H]1C(=O)N[C@@H](CO)C(=O)N[C@@H](CO)C(=O)NCC(=O)N[C@@H](C)C(=O)N1CCC[C@H]1C(=O)N1CCC[C@H]1C(=O)N1CCC[C@H]1C(=O)N[C@@H](CO)C(N)=O` (stereo partly drawn) [Compound 8]: the EC50 in experiment [1] was found to be 0.0329 nM; in experiment [2], 0.179 nM; in experiment [3], 0.0524 nM.
Taken in the same sequence, the figures for `CC[C@H](C)[C@H](NC(=O)[C@H](Cc1ccccc1)NC(=O)[C@H](C)NC(=O)C(C)(C)NC(=O)[C@H](CCC(N)=O)NC(=O)[C@H](C)NC(=O)[C@H](CCCCNC(=O)COCCOCCNC(=O)COCCOCCNC(=O)CC[C@H](NC(=O)CCCCCCCCCCCCCCCCCCC(=O)O)C(=O)O)NC(=O)[C@H](CCCCN)NC(=O)[C@H](CC(=O)O)NC(=O)[C@H](CC(C)C)NC(=O)C(C)(CC(C)C)NC(=O)[C@@H](NC(=O)[C@H](CO)NC(=O)[C@H](Cc1ccc(O)cc1)NC(=O)[C@H](CC(=O)O)NC(=O)[C@H](CO)NC(=O)[C@@H](NC(=O)C(C)(Cc1ccccc1)NC(=O)[C@@H](NC(=O)CNC(=O)[C@H](CCC(N)=O)NC(=O)C(C)(C)NC(=O)[C@@H](N)Cc1ccc(O)cc1)[C@@H](C)O)[C@@H](C)O)[C@@H](C)CC)C(=O)N[C@@H](CCC(=O)O)C(=O)N[C@@H](Cc1ccc(O)cc1)C(=O)N[C@@H](CC(C)C)C(=O)N[C@@H](CC(C)C)C(=O)N[C@@H](CCC(=O)O)C(=O)NCCCCC(=O)N1CCC[C@H]1C(=O)N[C@@H](CO)C(=O)N[C@@H](CO)C(=O)NCC(=O)N[C@@H](C)C(=O)N1CCC[C@H]1C(=O)N1CCC[C@H]1C(=O)N1CCC[C@H]1C(=O)N[C@@H](CO)C(N)=O` (stereo partly drawn) [Compound 9] were 0.0268 nM, 0.307 nM and 0.0519 nM.
With `CC[C@H](C)[C@H](NC(=O)[C@H](Cc1ccccc1)NC(=O)[C@H](C)NC(=O)C(C)(C)NC(=O)[C@H](CCC(N)=O)NC(=O)[C@H](C)NC(=O)[C@H](CCCCNC(=O)COCCOCCOCCOCCOCCNC(=O)CC[C@H](NC(=O)CCCCCCCCCCCCCCCCCCC(=O)O)C(=O)O)NC(=O)[C@H](CCCCN)NC(=O)[C@H](CC(=O)O)NC(=O)[C@H](CC(C)C)NC(=O)C(C)(CC(C)C)NC(=O)[C@@H](NC(=O)[C@H](CO)NC(=O)[C@H](Cc1ccc(O)cc1)NC(=O)[C@H](CC(=O)O)NC(=O)[C@H](CO)NC(=O)[C@@H](NC(=O)C(C)(Cc1ccccc1)NC(=O)[C@@H](NC(=O)CNC(=O)[C@H](CCC(N)=O)NC(=O)C(C)(C)NC(=O)[C@@H](N)Cc1ccc(O)cc1)[C@@H](C)O)[C@@H](C)O)[C@@H](C)CC)C(=O)N[C@@H](CCC(=O)O)C(=O)N[C@@H](Cc1ccc(O)cc1)C(=O)N[C@@H](CC(C)C)C(=O)N[C@@H](CC(C)C)C(=O)N[C@@H](CCC(=O)O)C(=O)NCCCCC(=O)N1CCC[C@H]1C(=O)N[C@@H](CO)C(=O)N[C@@H](CO)C(=O)NCC(=O)N[C@@H](C)C(=O)N1CCC[C@H]1C(=O)N1CCC[C@H]1C(=O)N1CCC[C@H]1C(=O)N[C@@H](CO)C(N)=O` (stereo partly drawn) [Compound 10], the values for the EC50 in experiment [1], in experiment [2] and in experiment [3] were 0.0256 nM, 0.299 nM and 0.0494 nM, respectively.

A word on the EC50: it is the concentration giving half of the maximal effect.

Source of the values: patent EP4806910A1, “TRI-AGONIST COMPOUND” (priority 2023, dated 2025).
